# Test results reported in PMC10709440, “High-throughput ligand profile characterization in novel cell lines expressing seven heterologous insect olfactory receptors for the detection of volatile plant biomarkers” (Scientific Reports, 2023).
# Where two headings read alike, the source gives them in different places.
# Columns and labels:
# [1] = molecular target: T1, Drosophila OR98a (Drosophila melanogaster, UniProt Q9VAZ3); assay: Calcium ion fluorescence (GCaMP6) assay, OR98a stable HEK293 cell line; type: cell-based; settings: for Average response: average of biological replicates, fraction of VUAA1 response
# T1 construct: expressed in transfected cells
# T1 sequence (Q9VAZ3 1-397): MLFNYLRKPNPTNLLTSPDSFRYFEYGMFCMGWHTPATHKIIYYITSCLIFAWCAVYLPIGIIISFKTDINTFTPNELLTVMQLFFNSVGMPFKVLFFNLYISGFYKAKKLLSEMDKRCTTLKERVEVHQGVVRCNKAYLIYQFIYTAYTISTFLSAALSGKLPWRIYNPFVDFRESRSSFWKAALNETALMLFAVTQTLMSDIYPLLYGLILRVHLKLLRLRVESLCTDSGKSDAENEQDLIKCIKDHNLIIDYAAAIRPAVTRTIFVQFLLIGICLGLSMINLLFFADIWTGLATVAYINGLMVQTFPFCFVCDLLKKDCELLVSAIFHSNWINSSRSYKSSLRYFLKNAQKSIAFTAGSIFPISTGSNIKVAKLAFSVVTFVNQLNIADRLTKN
# T1 sequence (Q9VNB5 1-486 partner): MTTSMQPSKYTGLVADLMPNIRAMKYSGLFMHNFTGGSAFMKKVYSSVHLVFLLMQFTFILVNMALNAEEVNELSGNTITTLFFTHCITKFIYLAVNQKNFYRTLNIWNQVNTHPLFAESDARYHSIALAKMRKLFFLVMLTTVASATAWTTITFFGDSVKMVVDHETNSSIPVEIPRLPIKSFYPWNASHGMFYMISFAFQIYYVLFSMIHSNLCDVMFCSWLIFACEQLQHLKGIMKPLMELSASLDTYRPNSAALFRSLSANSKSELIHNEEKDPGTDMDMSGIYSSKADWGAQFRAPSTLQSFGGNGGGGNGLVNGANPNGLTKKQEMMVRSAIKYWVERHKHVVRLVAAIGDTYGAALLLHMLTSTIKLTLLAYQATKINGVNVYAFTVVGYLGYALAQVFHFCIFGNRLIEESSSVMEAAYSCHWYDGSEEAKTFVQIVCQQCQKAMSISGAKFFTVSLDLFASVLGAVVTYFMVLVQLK
# How it was run: (§1)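 HEK293 lines stably expressing each Drosophila OR with GCaMP6, doxycycline-induced (1 μg/mL) 48 or 72 h. Fluorescence recorded 5 s baseline then 30 s after VOC injection at pH 7.3; ΔF=(FMAX−F0)/F0, normalized to 50 µM VUAA1 response per line, triplicate wells averaged; concentration series 0.01–100 μM.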
# [2] = molecular target: T2, Drosophila OR47a (Drosophila melanogaster, UniProt P81921); assay: Calcium ion fluorescence (GCaMP6) assay, OR47a stable HEK293 cell line; type: cell-based; settings: for Average response: mean of biological replicates; for response intensity: of VUAA1 response
# T2 construct: expressed in transfected cells
# T2 sequence (P81921 1-385): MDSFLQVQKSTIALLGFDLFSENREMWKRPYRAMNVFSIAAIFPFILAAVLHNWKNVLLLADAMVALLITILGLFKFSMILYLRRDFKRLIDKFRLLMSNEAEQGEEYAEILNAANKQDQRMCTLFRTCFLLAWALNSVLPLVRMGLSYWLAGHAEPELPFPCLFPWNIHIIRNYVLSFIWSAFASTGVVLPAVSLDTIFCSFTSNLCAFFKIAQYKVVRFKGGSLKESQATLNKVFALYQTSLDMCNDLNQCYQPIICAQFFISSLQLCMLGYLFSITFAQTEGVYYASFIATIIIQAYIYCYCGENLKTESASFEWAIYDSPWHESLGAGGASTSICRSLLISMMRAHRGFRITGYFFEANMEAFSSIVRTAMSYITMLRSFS
# T2 sequence (Q9VNB5 1-486 partner): T1 sequence (Q9VNB5 1-486 partner)
# How it was run: as §1
# [3] = concentration 1, normalized fluorescence change, values below 0.05 threshold given as 0
# [4] = concentration 10, normalized fluorescence change, values below 0.05 threshold given as 0
# [5] = concentration 100, normalized fluorescence change, values below 0.05 threshold given as 0
# [6] = OR47a cell line, odorant cc. 1 µM
# [7] = OR47a cell line, odorant cc. 10 µM
# [8] = OR47a cell line, odorant cc. 100 µM
# [9] = HEK293, read-out: Average response
# [10] = HEK293, read-out: OR98a response (VUAA1-normalized response)
# [11] = HEK293, read-out: OR47a response (VUAA1-normalized response)
# [12] = ligand concentration 1 (unit not given), threshold 0.05, below shown as 0
# [13] = ligand concentration 10 (unit not given), threshold 0.05, below shown as 0
# [14] = ligand concentration 100 (unit not given), threshold 0.05, below shown as 0
# [15] = HEK293, read-out: OR98a Average response (VUAA1-normalized)
# [16] = HEK293, read-out: OR47a Average response (VUAA1-normalized)
SMILES,"DF norm AVERAGE OR98a [1, 3]","DF norm AVERAGE OR98a [1, 4]","DF norm AVERAGE OR98a [1, 5]","Average response [2, 6]","Average response [2, 7]","Average response [2, 8]","DF norm AVERAGE OR47a [2, 3]","DF norm AVERAGE OR47a [2, 4]","DF norm AVERAGE OR47a [2, 5]","activation at 1 µM [1, 9]","activation at 10 µM [1, 9]","activation at 100 µM [1, 9]","activation at 1 µM [1, 10]","activation at 10 µM [1, 10]","activation at 100 µM [1, 10]","activation at 1 µM [2, 11]","activation at 10 µM [2, 11]","activation at 100 µM [2, 11]","DF norm AVERAGE OR98a [1, 12]","DF norm AVERAGE OR98a [1, 13]",other results
CC1=CCC[C@@]2(C)[C@@H]3CC[C@]12CC3(C)C [(−)-α-neoclovene],0.1483,0,0,0.00,0.00,0.018,0,0,0,–,–,–,–,–,–,–,–,–,–,–,"OR98a response (VUAA1-normalized response) ([1]; VOC concentration 1 μM): 0.15; OR98a response (VUAA1-normalized response) ([1]; VOC concentration 10 μM): 0.00; OR98a response (VUAA1-normalized response) ([1]; VOC concentration 100 μM): 0.00; Average response ([1]; cc. 1 µM, OR98a cell line): 0.15; Average response ([1]; cc. 10 µM, OR98a cell line): 0.00; Average response ([1]; cc. 100 µM, OR98a cell line): 0.0421; OR47a response (VUAA1-normalized response) ([2]; VOC concentration 1 μM): 0.00; OR47a response (VUAA1-normalized response) ([2]; VOC concentration 10 μM): 0.00; OR47a response (VUAA1-normalized response) ([2]; VOC concentration 100 μM): 0.00"
C=C1CC/C=C(\C)CC[C@@H]2[C@@H]1CC2(C)C [(-)-trans-caryophyllene],0.06975,0.06201,0.05748,0.0166,0.0326,0.00,0,0,0,7%,6%,6%,7%,6%,6%,0%,0%,0%,–,–,–
"COc1cccc(OC)c1 [1,3-dimethoxy benzene]",0,0,0,0.00,0.00,0.0217,0,0,0,0%,1.66%,3.31%,0%,0%,0%,0%,0%,0%,–,–,–
"C=CC(O)C/C=C\CC (centres unmarked) [(5Z)-octa-1,5-dien-3-ol]",0,0.08127,0.07281,0.00,0.00,0.00,0,0,0,0%,8%,7%,0%,8%,7%,0%,0%,0%,–,–,–
CCCC(=O)OCC [ethyl butyrate],–,–,–,0.00,0.00,0.0448,–,–,–,3.54%,0%,6.6%,0%,0%,6.6%,0%,0%,0%,0,0,"DF norm AVERAGE OR98a [1, 14]: 0.06596; DF norm AVERAGE OR47a [2, 12]: 0; DF norm AVERAGE OR47a [2, 13]: 0; DF norm AVERAGE OR47a [2, 14]: 0"
Cc1cccc(O)c1 [3-methylphenol],0,0,0.05828,0.00,0.00,0.00,0,0,0,4.63%,4.61%,6%,0%,0%,6%,0%,0%,0%,–,–,–
C=CCc1ccc(O)c(OC)c1 [eugenol],–,–,–,0.00,0.0283,0.0436,–,–,–,3.37%,0%,0%,0%,0%,0%,0%,0%,0%,0,0,"DF norm AVERAGE OR98a [1, 14]: 0; DF norm AVERAGE OR47a [2, 12]: 0; DF norm AVERAGE OR47a [2, 13]: 0; DF norm AVERAGE OR47a [2, 14]: 0"
C=C1CCC2(C(C)C)CC12 (centres unmarked) [sabinene],–,–,–,0.00,0.00,0.00,–,–,–,0%,10%,2%,–,–,–,–,–,–,0,0.1017,"OR98a response (VUAA1-normalized) at 1 μM ([1]; OR98a cell line, VOC concentration 1 μM): 0.00; OR98a response (VUAA1-normalized) at 10 μM ([1]; OR98a cell line, VOC concentration 10 μM): 0.10; OR98a response (VUAA1-normalized) at 100 μM ([1]; OR98a cell line, VOC concentration 100 μM): 0.00; DF norm AVERAGE OR98a [1, 14]: 0; OR47a response (VUAA1-normalized) at 1 μM ([2]; OR47a cell line, VOC concentration 1 μM): 0.00; OR47a response (VUAA1-normalized) at 10 μM ([2]; OR47a cell line, VOC concentration 10 μM): 0.00; OR47a response (VUAA1-normalized) at 100 μM ([2]; OR47a cell line, VOC concentration 100 μM): 0.00; DF norm AVERAGE OR47a [2, 12]: 0; DF norm AVERAGE OR47a [2, 13]: 0; DF norm AVERAGE OR47a [2, 14]: 0"
CC(=O)OCCC(C)C [isopentyl acetate],–,–,–,0.00,0.12,0.18,–,–,–,2.74%,2.22%,31%,0%,0%,31%,0%,12%,18%,0,0,"activation at 1 µM [1, 15]: 3%; activation at 10 µM [1, 15]: 2%; activation at 100 µM [1, 15]: 31%; DF norm AVERAGE OR98a [1, 14]: 0.3069; activation at 1 µM [2, 16]: 0%; activation at 10 µM [2, 16]: 12%; activation at 100 µM [2, 16]: 18%; response intensity ([2]; OR47a cell line, 10 μM): 12%; response intensity ([2]; OR47a cell line, 100 μM): 18%; DF norm AVERAGE OR47a [2, 12]: 0; DF norm AVERAGE OR47a [2, 13]: 0.1209; DF norm AVERAGE OR47a [2, 14]: 0.1752"
